These compounds were tested on T-cell (assay: Immunosuppressive activity in mouse T-cells assessed as inhibition of concanavalin A-induced proliferation).
Assay type: functional, cell-based

Point of comparison: O=C(Nc1ccc(I)cc1)Nc1ccc2c(c1)COC2=O, IC50 1.37 µM. Against it:
- Cc1ccc(NC(=O)Nc2ccc3c(c2)COC3=O)cc1 — 1.9-fold higher, 2.67 µM
- COc1ccc(/C=C/C(=O)Nc2ccc3c(c2)COC3=O)cc1OC — 47-fold lower, 0.029 µM
- COc1cc(CN(C)C(=O)C(=O)Nc2ccc3c(c2)COC3=O)cc(OC)c1OC — 2.4-fold higher, 3.28 µM
- O=C(Nc1ccc(Cl)cc1)C(=O)Nc1ccc2c(c1)COC2=O — 1.6-fold higher, 2.24 µM
- O=C(Nc1cccc([N+](=O)[O-])c1)C(=O)Nc1ccc2c(c1)COC2=O — within 1.5-fold, 1.82 µM
- CC(C)c1ccc(/C=C/C(=O)Nc2ccc3c(c2)COC3=O)cc1 — within 1.5-fold, 1.59 µM
- Cc1ccccc1NC(=O)C(=O)Nc1ccc2c(c1)COC2=O — 4-fold higher, 5.51 µM
- CC(C)(C)NC(=O)C(=O)Nc1ccc2c(c1)COC2=O — 2.5-fold higher, 3.4 µM
- CC(=O)Oc1ccc(/C=C/C(=O)Nc2ccc3c(c2)COC3=O)cc1OC(C)=O — 7.6-fold lower, 0.18 µM
- O=C(/C=C/c1ccccn1)Nc1ccc2c(c1)COC2=O — 13-fold higher, 17.9 µM
- O=C(/C=C/c1ccccc1)Nc1ccc2c(c1)COC2=O — 5.3-fold higher, 7.24 µM
- CC(=O)Oc1cccc(/C=C/C(=O)Nc2ccc3c(c2)COC3=O)c1 — 46-fold lower, 0.03 µM
- COc1cc(/C=C/C(=O)Nc2ccc3c(c2)COC3=O)cc(OC)c1OC — within 1.5-fold, 1.73 µM
- O=C(Nc1ccc(F)cc1)Nc1ccc2c(c1)COC2=O — 3.1-fold higher, 4.19 µM
- Cc1ccccc1NC(=O)Nc1ccc2c(c1)COC2=O — 1.5-fold lower, 0.9 µM
- N#Cc1ccc(/C=C/C(=O)Nc2ccc3c(c2)COC3=O)cc1 — 31-fold higher, 43.1 µM
- CC(C)(C)c1ccc(/C=C/C(=O)Nc2ccc3c(c2)COC3=O)cc1 — 1.9-fold lower, 0.72 µM
- CN(Cc1ccccc1)C(=O)C(=O)Nc1ccc2c(c1)COC2=O — 10-fold higher, 14.3 µM
- O=C(Nc1ccccc1)C(=O)Nc1ccc2c(c1)COC2=O — 26-fold higher, 36.1 µM
- O=C(/C=C/c1ccco1)Nc1ccc2c(c1)COC2=O — 6.6-fold higher, 9 µM
- COc1ccccc1/C=C/C(=O)Nc1ccc2c(c1)COC2=O — 35-fold lower, 0.039 µM
- CN(C(=O)Nc1ccc2c(c1)COC2=O)c1ccccc1 — higher, > 100 µM
- COc1cc(CCC(=O)Nc2ccc3c(c2)COC3=O)cc(OC)c1OC — 5.6-fold higher, 7.74 µM
- Cc1cccc(NC(=O)Nc2ccc3c(c2)COC3=O)c1 — 1.6-fold higher, 2.26 µM
- O=C(Nc1ccc(O)cc1)C(=O)Nc1ccc2c(c1)COC2=O — 3.7-fold higher, 5.03 µM
- COc1c(C)c2c(c(O)c1C/C=C(\C)CCC(=O)O)C(=O)OC2 [MYCOPHENOLIC ACID] — 4.9-fold lower, 0.28 µM
- O=C(/C=C/c1cccc(F)c1)Nc1ccc2c(c1)COC2=O — 40-fold lower, 0.034 µM
- O=C(Nc1ccccc1)Nc1ccc2c(c1)COC2=O — 5.2-fold higher, 7.09 µM
- O=C(Nc1ccc(Cl)cc1)Nc1ccc2c(c1)COC2=O — 1.8-fold higher, 2.45 µM
- COc1ccc(NC(=O)C(=O)Nc2ccc3c(c2)COC3=O)cc1 — 110-fold higher, 153 µM
- CCCNC(=O)Nc1ccc2c(c1)COC2=O — 42-fold higher, 58.1 µM
- O=C(Nc1ccc2c(c1)COC2=O)NC1CCCCC1 — 9.3-fold higher, 12.7 µM
- O=C(/C=C/c1ccccc1Br)Nc1ccc2c(c1)COC2=O — higher, > 100 µM
- O=C(Nc1ccc(F)cc1)C(=O)Nc1ccc2c(c1)COC2=O — 2.4-fold lower, 0.57 µM
- COc1cc(/C=C/C(=O)Nc2ccc3c(c2)COC3=O)ccc1OC(C)=O — 10-fold lower, 0.136 µM

These compounds were tested against Inosine-5'-monophosphate dehydrogenase 2 (Homo sapiens, UniProt P12268) (assay: Inhibition of IMPDH2).

Point of comparison: CC(=O)Oc1cccc(/C=C/C(=O)Nc2ccc3c(c2)COC3=O)c1, IC50 8.8 µM. Against it:
- COc1ccc(/C=C/C(=O)Nc2ccc3c(c2)COC3=O)cc1OC — 4.2-fold lower, 2.1 µM
- CC(=O)Oc1ccc(/C=C/C(=O)Nc2ccc3c(c2)COC3=O)cc1OC(C)=O — 3.1-fold lower, 2.8 µM
- CC(C)(C)c1ccc(/C=C/C(=O)Nc2ccc3c(c2)COC3=O)cc1 — 2.8-fold lower, 3.2 µM
- O=C(/C=C/c1cccc(F)c1)Nc1ccc2c(c1)COC2=O — 2-fold lower, 4.5 µM
